Experimental data published in patent US9289429B2, “Compounds and methods for inhibiting phosphate transport” (Ardelyx, Inc., priority 2010, dated 2016).

Legend:
rat NaP2b (SLC34A2) = target: T1, rat NaP2b (SLC34A2) (Rattus norvegicus, UniProt Q9JJ09); assay: NaP2b-mediated Pi transport (33P uptake) in transfected HEK293 cells, rat transporter; type: cell-based; details: HEK293 cells transfected with rat NaP2b, 33P phosphate uptake, 100 uM KH2PO4; read-out: pIC50 range for rat Nap2b (converted)
T1 construct: host or cells: HEK293
T1 sequence (Q9JJ09 1-695): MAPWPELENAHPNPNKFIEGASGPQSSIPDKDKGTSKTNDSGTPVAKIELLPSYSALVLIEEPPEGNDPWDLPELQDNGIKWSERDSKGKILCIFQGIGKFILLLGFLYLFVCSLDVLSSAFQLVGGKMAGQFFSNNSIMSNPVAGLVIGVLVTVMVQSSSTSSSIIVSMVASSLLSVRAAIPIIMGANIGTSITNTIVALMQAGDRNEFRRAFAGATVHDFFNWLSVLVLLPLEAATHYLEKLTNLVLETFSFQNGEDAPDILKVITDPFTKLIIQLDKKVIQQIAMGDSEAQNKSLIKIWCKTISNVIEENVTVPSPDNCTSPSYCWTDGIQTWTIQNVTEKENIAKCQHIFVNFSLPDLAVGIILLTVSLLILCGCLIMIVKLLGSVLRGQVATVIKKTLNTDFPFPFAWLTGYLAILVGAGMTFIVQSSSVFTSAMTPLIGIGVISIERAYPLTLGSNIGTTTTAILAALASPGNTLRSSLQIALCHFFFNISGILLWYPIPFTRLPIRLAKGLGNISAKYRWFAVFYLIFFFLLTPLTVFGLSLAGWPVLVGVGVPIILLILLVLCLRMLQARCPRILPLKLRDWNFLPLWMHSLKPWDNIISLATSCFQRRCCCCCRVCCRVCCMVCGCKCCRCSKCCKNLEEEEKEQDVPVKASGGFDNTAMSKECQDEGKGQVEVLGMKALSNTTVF
Experimental: HEK293 cells were obtained from the American Type Culture collection and propagated per their instructions. Expression clones for rat and human NaP2b (SLC34A2) were obtained from Open Biosystems (Catalog numbers MRN1768-9510282, and MHS1010-99823026, respectively). The sequence of the human protein was mutated to insert a threonine after residue 37, and to introduce a N39D mutation.
The rate of phosphate (Pi) uptake into HEK293 cells was measured using a modification of the method described by Mohrmann et al. (Mohrmann, I., Mohrmann, M., Biber, J., and Murer, H. (1986) Am. J. Phys. 250(3 Pt 1):G323-30.) Transfected HEK293 cells were treated with a pharmacological agent to minimize endogenous PiT-mediated phosphate transport activity, such that the only remaining sodium-dependent phosphate transport activity is that which was bestowed by introduction of the NaP2b genes.
Cells were seeded into 96-well plates at 25,000 cells/well and cultured overnight. Lipofectamine 2000 (Invitrogen) was used to introduce the NaP2b cDNA, and the cells were allowed to approach confluence during a second overnight incubation. […] Cells were then overlayed with either choline uptake buffer or sodium uptake buffer (14 mM Tris, 137 mM sodium chloride, 5.4 mM KCl, 2.8 mM CaCl2, 1.2 mM MgSO4, 100 uM KH2PO4, PiT-silencing agent, 1 mg/mL Bovine Serum Albumin, pH 7.4) containing 6-9 uCi/mL ^33P orthophosphoric acid (Perkin Elmer) and test compound. Each compound was tested at twelve concentrations ranging from 0.1 nM to 30 uM. Assays were run in duplicate.
After incubation for 3-30 minutes at room temperature, assay mixtures were removed, and the cells were washed twice with ice cold stop solution (137 mM sodium chloride, 14 mM Tris, pH 7.4). Cells were lysed by addition of 20 μL 0.1% Tween 80 followed by 100 μL scintillation fluid, and counted using a TopCount (Perkin Elmer).
pIC50 (the negative log of the IC50) values of the test compounds were calculated using GraphPad Prism.

[1] = Determination of compound Cmax and AUC after oral gavage; type: in vivo; details: Sprague-Dawley, rat plasma, actual oral dose 8.9 mg/kg (Example 11) or 10 mg/kg (Example 2)
Experimental: Sprague-Dawley rats were orally gavaged with test article at a nominal dose of 2.5 or 10 mg/kg and blood was collected at 0.5, 1, 2 and 4 h. Blood samples were processed to plasma using K2EDTA as an anticoaglulant. Plasma samples were treated with acetonitrile containing an internal standard, precipitated proteins removed by centrifugation. Supernatants were analyzed by LC-MS/MS and compound concentrations were determined by interpolated from a standard curve prepared in plasma. All compounds were orally dosed at the dosage shown, and pharmacokinetic parameters determined

[2] = Fecal recovery of orally administered compounds; type: in vivo; details: rat, oral gavage, feces collected until 48 hr after dosing, same animals as Example 22
Experimental: Quantitative determination of test compound level in feces after oral gavage was performed using the same set of animals used to determine test compound concentration in plasma (Example 22). The animals were kept in metabolic cages and feces were collected from the time of dosing until 48 hr after dosing. Upon collection, feces was dried by lyophilization and ground to a visually homogenous powder. Duplicate samples of ground feces from each individual animal were weighed out and extracted using organic solvent. Extracted samples were then diluted into mobile phase and test compound levels were quantitatively determined by LC-MS/MS analysis as described in “Example 22” except that the standard curve was prepared in a feces matrix. Extraction conditions were not optimized for individual compounds, and thus may represent a minimal level of recovery.

Sprague-Dawley rats = assay: In vivo bolus phosphate challenge; details: rat, oral, Drug Dose 30 (unit not given), serum 30 min post phosphate bolus
Experimental: By pretreating animals with a low phosphorus diet followed by the subsequent dosing of a phosphorus bolus, serum phosphorus levels were monitored after 30 minutes as a surrogate for intestinal phosphorus absorption. […] The in vivo bolus phosphorus challenge model used here mimics this model in rats.
Male, 7-week-old Sprague-Dawley rats (Charles-River laboratories international, Hollister, Calif.) were allowed to acclimate for a minimum of 3 days before switching to a synthetic low-phosphorus diet (TD.85010, Harlan Teklad, Madison, Wis.) which contains 0.1% phosphorus and 0.6% calcium. At day 5, testing compounds or vehicle alone (as indicated) were orally administered at the indicated dose in a volume of 5 ml/kg, followed by a bolus gavage of monobasic sodium phosphate (1 mmol in 1 ml) 15 min after compound dosing. Serum was collected via retroorbital bleeding 30 min post phosphate bolus and phosphate levels were determined utilizing an ACE ALERA blood chemistry analyzer (Alfa Wassermann Diagnostic Technologies, West Caldwell, N.J.).
The extent of inhibition by test compounds on the elevation of serum phosphate levels in response to the bolus of phosphate is shown in Table 3 (data are expressed as % Inhibition, with 6-10 animals per data point). The differences between groups were evaluated by one-way analysis of variance with Dunnett's post hoc tests.

SMILES	IC50 (rat NaP2b (SLC34A2)) [µM]	Cmax ([1]; LLOQ 5 ng/mL) [ng/mL]	AUC ([1]; samples 0.5-4 h) [ng·h/mL]	% recovered in feces [2] [%]	% Inhibition of Serum P elevation (Sprague-Dawley rats) [%]
O=C(O)CCSCc1cccc(C(=O)Nc2ccc(N3CCCCC3)cc2C(=O)Nc2cnc(-c3ccccc3)nc2)c1 [Example 2, 3-((3-((2-((2-Phenylpyrimidin-5-yl)carbamoyl)-4-(piperidin-1-yl)phenyl)carbamoyl)benzyl)thio)propanoic acid]	1 to 7.94	645	822	16	
O=C(O)CCSCc1cccc(C(=O)Nc2ccc(N3CCCCC3)cc2C(=O)Nc2cnc(-c3cccc(C(F)(F)F)c3)nc2)c1 [Example 4, 3-((3-((4-(Piperidin-1-yl)-2-((2-(3-(trifluoromethyl)phenyl)pyrimidin-5-yl)carbamoyl)phenyl)carbamoyl)benzyl)thio)propanoic acid]	1 to 7.94				11
